This assay relates to adult pollen beetles with resistance against pyrethroids. Kind of assay: Field trial on a commercial oilseed rape field: spray treatment, count of living adult pollen beetles. It counts as in vivo, Meligethes aeneus. On the procedure:
Experiments were carried out on a commercial oilseed rape field location previously confirmed to have adult pollen beetles with resistance against pyrethroids. The experiments were carried out according the GEP settings for field trial set up and corresponding assessment of the treatments. The lay-out was a standard randomized block de-sign with 4 replicates. The different treatments (see Table 1 below) were prepared by diluting the respective products in water by well homogenized standard stirring in order to spray the four replicates at a spray volume of 300 to 400 liter per ha. The products used were the commercial formulation Fastac® OESC (containing 100 g per liter alpha-cypermethrin) and an experimental liquid formulation (containing 303.5 g PBO on a weight per weight basis). The three combinations of Fastac® OESC and the PBO containing liquid formulation in the Table 1 below were made as a tank mix of a standard rate of Fastac® OESC and a varying rate for the PBO containing formulation. The treatments were sprayed on the plants and the adult pollen beetles present on the plant by means of a knapsack sprayer at standard air pressure. The treatments were applied shortly after each other by appropriate rinsing in between according the GEP standard procedure. The development growth stage of the oilseed rape according to the BBCH code at the time of the treatment was 50 to 59 (the abbreviation “BBCH” stands for the Biologische Bundesanstalt, Bundessortenamt and Chemische Industrie). Shortly before the treatment the present adult pollen beetles were assessed in counting the number of adult pollen beetles present on 50 inflorescences—randomly taken—in each of the replicates. The total number of adult pollen beetles on the 4 replicates was then divided by 4 to give the average number of living adult pollen beetles per 50 inflorescenses, mentioned in the Table 1 below. The same procedure was followed respectively 3 and 6 days after the treatment (DAT).

On to `CC1(C)C(C=C(Cl)Cl)C1C(=O)OC(C#N)c1cccc(Oc2ccccc2)c1` (stereo not drawn) [alpha-cypermethrin], for which the “Average number of living adult pollen beetles per 50 inflorescenses” value worked out at 343 (alpha-cypermethrin 7.5 g a.i./ha, 0 DAT (count shortly before treatment), oilseed rape field, 4 replicates); 119 (alpha-cypermethrin 7.5 g a.i./ha, 3 DAT); 75 (alpha-cypermethrin 7.5 g a.i./ha, 6 DAT); 352 (alpha-cypermethrin 12.5 g a.i./ha, 0 DAT (count shortly before treatment)); 116 (alpha-cypermethrin 12.5 g a.i./ha, 3 DAT); 79 (alpha-cypermethrin 12.5 g a.i./ha, 6 DAT).
